Measurements from patent US12325700B2, “Crystal form S4 of the PLK4 inhibitor (1R,2S)-(e)-2-(3-(4-((cis-2,6-dimethylmorpholino)methyl)styryl)-1 h-imidazol-6-yl)-5′-methoxyspiro[cyclopropane-1,3′-indolin]-2′-one fumarate” (UNIVERSITY HEALTH NETWORK, priority 2019, dated 2025).
Converted amounts (≈) assume the structure as drawn. Counter-ions that a name gives are not always drawn. Like-named read-outs stand apart in the source and are kept apart here.

Experiments:
[1] = Intrinsic dissolution rate at pH 2; type: physicochemical
[2] = Dynamic vapor sorption (DVS) hygroscopicity measurement; type: physicochemical; conditions: 25° C.
Procedure: Hygroscopicity measurements were performed by transferring about 10 mg of sample into a DVS instrument and subsequently recording the weight change with respect to the atmospheric humidity at 25° C. using the following parameters: […]

[3] = human, in vivo
Procedure: Patients were dosed in clinical trials approved by Health Canada and the Research Ethics Board of the Hospital administering the drug. Eight patients were administered the form S4 tablets, six at a dose level of 48 mg and two at a dose level of 160 mg. 64 patients were administered the form D tablets at doses ranging from 3-160 mg.
Blood was collected for analysis prior to dosing and 2, 4, and 6 h after dosing. Briefly, using standard phlebotomy procedures, approximately 6 mL of blood was collected into a K3EDTA blood collection tube and then inverted 8-10 times to mix. The sample was then centrifuged at 1,000 g for 10-15 min at approximately 5° C. The plasma fraction of the blood was removed using a disposable pipette, transferred to a new tube, frozen at −70° C. and subsequently shipped on dry ice for analysis.
Levels of compound (I) were measured in plasma using a method validated in accordance to all applicable USFDA, OECD and MHLW regulations and the USFDA Guidance for Industry: Bioanalytical Method Validation May 2001. […] After evaporation of the extraction solvent, the sample extracts were reconstituted and analyzed by reversed-phase HPLC using a Waters Atlantis dC18. […] The ionized compounds were detected using MS/MS. […] Pharmacokinetic parameters were determined using the Excel add in “PK Functions” […]

[4] = Equilibrium solubility in bio-relevant media at ambient temperature; type: physicochemical; conditions: for solubility thermodynamic: thermodynamic from solid
Procedure: Also, equilibrium solubilities were measured in various bio-relevant media at ambient temperature.

[5] = In-vitro dissolution testing of tablets (oral dosage forms); type: physicochemical
Text: According to the FDA's guidance, in vitro dissolution testing of a drug substance in its oral dosage forms can be properly designed to establish an In Vivo-In Vitro Correlation (IVIVC), i.e., the correlation between an in-vitro property of a dosage form and an in-vivo response. With this guidance, two batches of fumarate containing crystal forms D and S4 were used to prepare tablets, to evaluate any impact on performance of the drug product. Each of the two batches of fumarate and excipients were individually sieved before weighing. The desired weight of each component was then transferred into a shaker mixer and blended. Tableting for the two batches was then performed using a single punch tablet press.
The performance of these tablets was then evaluated using a properly validated dissolution test method.

SMILES	Intrinsic dissolution rate [1] [μg/cm^2-min]	weight gain at 80% RH [2] [%]	average dose-normalized exposure (AUC0-6 h divided by dose) [3] [ng·h/mL/mg]	equilibrium solubility in FaSSGF ([4]; fasted state simulating gastric fluid (FaSSGF)) [mg/mL]	equilibrium solubility in FaSSIF ([4]; fasted state simulating intestinal fluid (FaSSIF)) [mg/mL]	Dissolution Max ([5]; time 15) [%]	Dissolution Mean ([5]; time 15) [%]	Dissolution Min ([5]; time 15) [%]	Dissolution Max ([5]; time 30) [%]	Dissolution Mean ([5]; time 30) [%]	Dissolution Min ([5]; time 30) [%]	Dissolution Max ([5]; time 60 (60 min)) [%]	Dissolution Mean ([5]; time 60 (60 min)) [%]	Dissolution Min ([5]; time 60 (60 min)) [%]	solubility thermodynamic ([4]; fasted state simulating gastric fluid (FaSSGF), fassgf or other biorelevant, fasted state simulating gastric fluid (FaSSGF), read-out: equilibrium solubility in FaSSGF) [mg/mL]	solubility thermodynamic ([4]; fasted state simulating intestinal fluid (FaSSIF), fassif, fasted state simulating intestinal fluid (FaSSIF), read-out: equilibrium solubility in FaSSIF) [mg/mL]
COc1ccc2c(c1)[C@]1(C[C@H]1c1ccc3c(/C=C/c4ccc(CN5C[C@@H](C)O[C@@H](C)C5)cc4)n[nH]c3c1)C(=O)N2 [form S4, (1R,2S)-(e)-2-(3-(4-((cis-2,6-dimethylmorpholino)methyl)styryl)-1 h-imidazol-6-yl)-5′-methoxyspiro[cyclopropane-1,3′-indolin]-2′-one fumarate]	429.3	0.41	5.99 ± 2.48	2.52	0.05	77	76	74	91	90	89	95	94	93	–	–
COc1ccc2c(c1)[C@]1(C[C@H]1c1ccc3c(/C=C/c4ccc(CN5C[C@@H](C)O[C@@H](C)C5)cc4)n[nH]c3c1)C(=O)N2 [form D]	440.4	0.56	–	–	–	64	63	61	86	83	81	98	94	92	2.08 (≈ 3890 µM)	0.08 (≈ 150 µM)
